Literature values in patent US20050158747A1, “CFTR modifier genes and expressed polypeptides useful in treating cystic fibrosis and methods and products for detecting and/or identifying same” (priority 2003, published 2005).

Key:
[1] = tested on: purinergic receptors in the airway epithelium; details: in vitro studies
[2] = tested on: sodium (Na^+) channels; details: aerosolized; initial results

SMILES	chloride (Cl^−) secretion [1]	rate of disease progression, as measured by lung function tests [2]	safety in trials [2]
O=c1ccn([C@@H]2O[C@H](COP(=O)(O)OP(=O)(O)OP(=O)(O)O)[C@@H](O)[C@H]2O)c(=O)[nH]1 [UTP]	can stimulate chloride (Cl^−) secretion	–	–
Nc1ncnc2c1ncn2[C@@H]1O[C@H](COP(=O)(O)OP(=O)(O)OP(=O)(O)O)[C@@H](O)[C@H]1O [ATP]	can stimulate chloride (Cl^−) secretion	–	–
N=C(N)NC(=O)c1nc(Cl)c(N)nc1N [amiloride]	–	slight change in the rate of disease progression	safe
